What all share (test): Fluorimetric PPyrPM assay for group 1B PLA2 inhibition (Example 12)
Common to all, as to assay type: biochemical

The target of test [1] is T1, porcine group 1B PLA2 (pps PLA2) (Sus scrofa, UniProt P00592).
T1 construct: purchased
As to conditions: porcine pancreas secreted PLA2; read-out: ILYPSA IC50 pps PLA2. The text has this: (§1) In this example, a fluorimetric assay procedure was used to evaluate the indole and indole-related compounds of the invention as inhibitors of group 1B phospholipase A2 (PLA2) from human, mouse and porcine. A description of this assay is found in articles: Leslie, C C and Gelb, M H (2004) Methods in Molecular Biology “Assaying phospholipase A2 activity”, 284:229-242; Singer, A G, et al. (2002) Journal of Biological Chemistry “Interfacial kinetic and binding properties of the complete set of human and mouse groups I, II, V, X, and XII secreted phospholipases A2”, 277:48535-48549, which are incorporated herein as references.
(§2) In general, this assay used a phosphatidylmethanol substrate with a pyrene fluorophore on the terminal end of the sn-2 fatty acyl chain. Without being bound by theory, close proximity of the pyrenes from neighboring phospholipids in a phospholipid vesicle caused the spectral properties to change relative to that of monomeric pyrene. Bovine serum albumin was present in the aqueous phase and captured the pyrene fatty acid when it is liberated from the glycerol backbone owing to the PLA2-catalyzed reaction. However, a potent inhibitor can inhibit the liberation of pyrene fatty acid from the glycerol backbone. […] The effect of a given inhibitor and inhibitor concentration on human, mouse and porcine phospholipase was determined.
(§3) The following reagents and equipments were obtained from commercial vendors: • 1. Porcine group 1B phospholipase A2 • 2. 1-hexadecanoyl-2-(1-pyrenedecanoyl)-sn-glycero-3-phosphomethanol (PPyrPM) • 3. Bovine serum albumin (BSA, fatty acid free) • 4. 2-Amino-2-(hydroxymethyl)-1,3-propanediol, hydrochloride (Tris-HCl) • 5. Calcium chloride • 6. Potassium chloride • 7. Solvents: DMSO, toluene, isopropanol, ethanol • 8. Molecular Devices SPECTRAmax microplate spectrofluorometer • 9. Costar 96 well black wall/clear bottom plate
(§4) The following reagents were prepared: • 10. PPyrPM stock solution (1 mg/ml) in toluene:isopropanol (1:1) • 11. ILY104 inhibitor stock solution (10 mM) in DMSO • 12. 3% (w/v) bovine serum albumin (BSA) • 13. Stock buffer: 50 mM Tris-HCl, pH 8.0, 50 mM KCl and 1 mM CaCl2
The following procedure was performed to evaluate the inhibitory potency of the evaluated compounds. • 14. An assay buffer was prepared by adding 3 ml 3% BSA to 47 ml stock buffer. • 15. Solution A was prepared by adding serially diluted inhibitors to the assay buffer. Inhibitors were three-fold diluted in stock buffer in a series of 8 from 15 uM. • 16. Solution B was prepared by adding human, mouse or porcine PLA2 to the assay buffer. This solution was prepared immediately before use to minimize enzyme activity loss. • 17. Solution C was prepared by adding 30 ul PPyrPM stock solution to 90 ul ethanol, and then all 120 ul of PPyrPM solution was transferred drop-wise over approximately 1 min to the continuously stirring 8.82 ml assay buffer to form a final concentration of 4.2 uM PPyrPM vesicle solution. • 18. The SPECTRAmax microplate spectrofluorometer was set at 37° C. • 19. 100 ul of solution A was added to each inhibition assay well of a costar 96 well black wall/clear bottom plate • 20. 100 ul of solution B was added to each inhibition assay well of a costar 96 well black wall/clear bottom plate. • 21. 100 ul of solution C was added to each inhibition assay well of a costar 96 well black wall/clear bottom plate. • 22. The plate was incubated inside the spectrofluorometer chamber for 3 min. • 23. The fluorescence was read using an excitation of 342 nm and an emission of 395 nm.
Evaluated compounds were tested in duplicate and their values were averaged to plot the inhibition curve and calculate the IC50. Compared to uninhibited controls, lower fluorescent signal at an emission of 395 nm in test reactions evidenced inhibition of PLA2. […] Compounds initially found to be active were repeated to confirm their inhibitory activity. […]

Test [2] concerns the target T2, human group 1B PLA2 (hps PLA2) (Homo sapiens, UniProt P04054).
T2 construct: made in house; host or cells: E. coli
The following applies: for inhibition at 15 µM: read-out: ILYPSA % inhibition at 15 μM hps PLA2.
Source text: as §1, §2
(§5) Recombinant human and mouse group 1B PLA2 were cloned and expressed in E. coli as insoluble inclusion bodies. The inclusion bodies were isolated and purified by sonicating cell pellet in lysis buffer (50 mM Tris-HCl pH 7.0, 250 mM NaCl, 0.5% Triton 100), centrifugation at 12,000×g, and washing three times in washing buffer (20 mM Tris-HCl pH 7.0, 250 mM NaCl, 0.5% Triton 100). Then the inclusion bodies were dissolved in dissolving buffer (50 mM Tris-HCl pH 7.0, 250 mM NaCl, 6 M Guanidine-HCl, 1 mM DTT) and dialyzed four times against 10 volumes of refolding buffer (20 mM Tris-HCl pH 7.0, 250 mM NaCl, 0.5M Guanidine-HCl, 5% (w/w) Glycerol, 2 mM reduced glutathione and 0.4 mM oxidized glutathione) at 4° C. The correctly refolded proteins were concentrated using Amicon Stirred cell under nitrogen pressure (<70 psi) and dialyzed against 10 volumes of 50 mM Tris-HCl pH 7.0, 250 mM NaCl and 5% (w/w) glycerol. Human and mouse group 1B PLA2 were further purified by High S ion exchange and gel filtration columns.
as §3, §4
(§6) The following procedure was performed to evaluate the inhibitory potency of the evaluated compounds. • 14. An assay buffer was prepared by adding 3 ml 3% BSA to 47 ml stock buffer. • 15. Solution A was prepared by adding serially diluted inhibitors to the assay buffer. Inhibitors were three-fold diluted in stock buffer in a series of 8 from 15 uM. • 16. Solution B was prepared by adding human, mouse or porcine PLA2 to the assay buffer. This solution was prepared immediately before use to minimize enzyme activity loss. • 17. Solution C was prepared by adding 30 ul PPyrPM stock solution to 90 ul ethanol, and then all 120 ul of PPyrPM solution was transferred drop-wise over approximately 1 min to the continuously stirring 8.82 ml assay buffer to form a final concentration of 4.2 uM PPyrPM vesicle solution. • 18. […]

The target in test [3] is T3, mouse group 1B PLA2 (mps PLA2) (Mus musculus, UniProt Q9Z0Y2).
T3 construct: made in house; host or cells: E. coli
The following applies: for inhibition at 15 µM: read-out: ILYPSA % inhibition at 15 μM mps PLA2.
Source text: as §1, §2, §5, §3, §4, §6

[4] abbreviates: human pancreas secreted PLA2, read-out: ILYPSA IC50 hps PLA2.
[5] abbreviates: mouse pancreas secreted PLA2, read-out: ILYPSA IC50 mps PLA2.

The structures appear in SMILES notation. Like-named read-outs stand apart in the source and are kept apart here. Bounds are passed on as bounds.

T3 sequence (Q9Z0Y2 23-146): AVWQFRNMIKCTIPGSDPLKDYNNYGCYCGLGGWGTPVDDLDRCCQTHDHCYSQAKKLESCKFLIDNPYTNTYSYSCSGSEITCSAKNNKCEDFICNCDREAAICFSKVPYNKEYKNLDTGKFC
T2 sequence (P04054 23-148): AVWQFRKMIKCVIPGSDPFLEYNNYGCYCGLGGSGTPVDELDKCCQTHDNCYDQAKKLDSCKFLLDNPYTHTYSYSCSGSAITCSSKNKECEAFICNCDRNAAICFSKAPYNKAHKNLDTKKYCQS
T1 sequence (P00592 23-146): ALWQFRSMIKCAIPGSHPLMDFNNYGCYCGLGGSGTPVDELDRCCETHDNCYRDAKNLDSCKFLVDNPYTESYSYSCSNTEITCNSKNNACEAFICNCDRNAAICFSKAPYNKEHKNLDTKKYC

Consider `Cc1c(C(=O)C(N)=O)c2c(OCC(=O)O)cccc2n1CCCCCCCCCCCCSCCCCCCCCCCCCn1c(C)c(C(=O)C(N)=O)c2c(OCC(=O)O)cccc21` [IL-V-29, 2,2′-(1,1′-(12,12′-thiobis(dodecane-12,1-diyl))bis(3-(2-amino-2-oxoacetyl)-2-methyl-1H-indole-4,1-diyl))bis(oxy)diacetic acid], for which the IC50 (commonly the concentration that gives 50% inhibition) in test [1] worked out at 0.53 µM; in test [2] (setting [4]), 0.46 µM; in test [3] (setting [5]), 0.79 µM.
For the molecule `Cc1c(C(=O)C(N)=O)c2c(OCC(=O)O)nccc2n1Cc1ccccc1-c1ccccc1` [ILY-II-4, (3-Aminooxalyl-1-biphenyl-2-ylmethyl-2-methyl-1H-pyrrolo[3,2-c]pyridin-4-yloxy)-acetic acid], the IC50 in test [1] is below 0.02 µM; in test [2], 0.08 µM; in test [3], 0.07 µM.
Turning to `Cc1c(C(=O)C(N)=O)c2c(OCC(=O)NS(C)(=O)=O)nccc2n1Cc1ccccc1` [ILY-II-7, 2-[1-Benzyl-4-(2-methanesulfonylamino-2-oxo-ethoxy)-2-methyl-1H-pyrrolo[3,2-c]pyridin-3-yl]-2-oxo-acetamide], the values for the IC50 in test [1], in test [2] (setting [4]) and in test [3] (setting [5]) were 0.04 µM, 2.07 µM and 1.05 µM, respectively.
The like results for `CCCCCCCCn1c(C)c(C(=O)C(N)=O)c2c(OCC(=O)O)nccc21` [ILY-II-8, (3-Aminooxalyl-2-methyl-1-octyl-1H-pyrrolo[3,2-c]pyridin-4-yloxy)-acetic acid] were, in that order, 0.08 µM, 0.27 µM and 0.12 µM.
As for `CCc1c(C(=O)C(N)=O)c2c(OCC(=O)O)nccc2n1Cc1ccccc1` [ILY-II-9, 2-(3-(2-amino-2-oxoacetyl)-1-benzyl-2-ethyl-1H-pyrrolo[3,2-c]pyridin-4-yloxy)acetic acid], the half-maximal inhibitory concentration (IC50) in test [1] was determined as 0.03 µM; in test [2] (setting [4]), 1.46 µM; in test [3] (setting [5]), 0.35 µM.
For the molecule `CCC(Oc1nccc2c1c(C(=O)C(N)=O)c(C)n2Cc1ccccc1)C(=O)O` (centres unmarked) [ILY-II-11, 2-(3-Aminooxalyl-1-benzyl-2-methyl-1H-pyrrolo[3,2-c]pyridin-4-yloxy)-butyric acid], the IC50 in test [1] is below 0.02 µM; in test [2], 0.48 µM; in test [3], 0.03 µM.
`Cc1c(C(=O)C(N)=O)c2c(OCC(=O)NC(CC(=O)O)C(=O)O)nccc2n1Cc1ccccc1` (centres unmarked) [ILY-II-12, 2-(2-(3-(2-amino-2-oxoacetyl)-1-benzyl-2-methyl-1H-pyrrolo[3,2-c]pyridin-4-yloxy)acetamido)succinic acid]: the IC50 in test [1] turned out to be 3.71 µM. Besides, the inhibition (in general, the change of the read-out against control, counted positive when it falls) at 15 µM worked out at 16.6% in test [2] (human pancreas secreted PLA2) and 35.7% in test [3] (mouse pancreas secreted PLA2).
On to `Cc1c(CC(N)=O)c2c(OCC(=O)O)cccc2n1Cc1ccccc1` [ILY-III-22, (1-Benzyl-3-carbamoylmethyl-2-methyl-1H-indol-4-yloxy)-acetic acid], for which the IC50 in test [2] (setting [4]) is 1.32 µM; in test [3] (setting [5]), 0.89 µM.
Take `Cc1c(C(=O)C(N)=O)c2c(OCC(=O)O)c(Br)ccc2n1Cc1ccccc1` [ILY-IV-3, (3-Aminooxalyl-1-benzyl-5-bromo-2-methyl-1H-indol-4-yloxy)-acetic acid]: in test [1], the IC50 was determined as 5.87 µM. The values for the inhibition at 15 µM in test [2] (human pancreas secreted PLA2) and in test [3] (mouse pancreas secreted PLA2) were 35.8% and 39.8%, respectively.
In the case of `Cc1c(C(=O)C(N)=O)c2c(OC(C(=O)O)C(=O)O)cccc2n1Cc1ccccc1` [ILY-IV-8, 2-(3-Aminoooxalyl-1-benzyl-2-methyl-1H-indol-4-yloxy)-malonic acid], the IC50 in test [1] worked out at 2.25 µM. For the same molecule, the values for the inhibition at 15 µM in test [2] (human pancreas secreted PLA2) and in test [3] (mouse pancreas secreted PLA2) were 41% and 61.2%, respectively.
As to `Cc1c(C(=O)C(N)=O)c2c(OCC(=O)O)ccc(Br)c2n1Cc1ccccc1` [ILY-IV-9, (3-Aminooxalyl-1-benzyl-7-bromo-2-methyl-1H-indol-4-yloxy)-acetic acid], the results for the half-maximal inhibitory concentration (IC50) in test [1], in test [2] (setting [4]) and in test [3] (setting [5]) were 0.04 µM, 0.54 µM and 0.36 µM, respectively.
Turning to `CCC(Oc1cccc2c1c(C(=O)C(N)=O)c(C)n2Cc1ccccc1)C(=O)O` (centres unmarked) [ILY-IV-20, 2-(3-Aminooxalyl-1-benzyl-2-methyl-1H-indol-4-yloxy)-butyric acid], the IC50 was below 0.02 µM in test [1], 0.18 µM in test [2] and below 0.02 µM in test [3] (setting [5]).
On to `Cc1c(C(=O)C(N)=O)c2c(OCC(=O)NS(C)(=O)=O)cccc2n1Cc1ccccc1` [ILY-IV-21, 1-Benzyl-2-methyl-4-methanesulfonamidoylmethyloxy-1H-indol-3-glyoxylamide], for which the IC50 is below 0.02 µM in test [1], 1.16 µM in test [2] (setting [4]) and 0.32 µM in test [3] (setting [5]).
Turning to `Cc1c(C(=O)C(N)=O)c2c(OC(C(=O)O)C(C)C)cccc2n1Cc1ccccc1` (centres unmarked) [ILY-IV-22, 2-(3-Aminooxalyl-1-benzyl-2-methyl-1H-indol-4-yloxy)-3-methyl-butyric acid], the IC50 is below 0.02 µM in test [1], 0.07 µM in test [2] (setting [4]) and below 0.02 µM in test [3] (setting [5]).
`Cc1c(C(=O)C(N)=O)c2c(OC(F)C(=O)O)cccc2n1Cc1ccccc1` (centres unmarked) [ILY-IV-24, (3-Aminooxalyl-1-benzyl-2-methyl-1H-indol-4-yloxy)-fluoro-acetic acid]: the IC50 in test [1] was 1.42 µM. For the same molecule, the inhibition at 15 µM in test [2] (human pancreas secreted PLA2) turned out to be 52.4%; in test [3] (mouse pancreas secreted PLA2), 63.7%.
`Cc1ccc(S(=O)(=O)NC(=O)COc2cccc3c2c(C(=O)C(N)=O)c(C)n3Cc2ccccc2)cc1` [ILY-IV-26, 1-Benzyl-2-methyl-4-p-toluenesulfonamidoylmethyloxy-1H-indol-3-glyoxylamide]: the figures for the IC50 in test [1], in test [2] (setting [4]) and in test [3] (setting [5]) were 0.08 µM, above 5 µM and 3.09 µM, respectively.
With `Cc1c(C(=O)C(N)=O)c2c(OC(F)C(N)=O)cccc2n1Cc1ccccc1` (centres unmarked) [ILY-IV-28, 2-(3-Aminooxalyl-1-benzyl-2-methyl-1H-indol-4-yloxy)-2-fluoro-acetamide], the results for the IC50 in test [1], in test [2] (setting [4]) and in test [3] (setting [5]) were 0.16 µM, 2.6 µM and 1.44 µM, respectively.

The values are drawn from patent US20070135383A1, “Phospholipase inhibitors, including multi-valent phospholipase inhibitors, and use thereof, including as lumen-localized phospholipase inhibitors” (priority 2005, published 2007).
